Laboratory results as given in patent US7531195B2, “Schisandrin B preparation” (priority 2005, dated 2009).

Columns and labels:
Assay type in all cases: in vivo, rat
[1] = tested on: mitochondria of brain, heart, liver and skeletal muscle; assay: Ca2+-induced mitochondrial permeability transition (MPT) in tissues of young adult and middle-aged rats
Method: (§1) Young adult (8-10 week-old) and middle-aged (12-14 month-old retired breeder) female Sprague-Dawley rats were maintained under a 12-h dark/light cycle at about 22° C. and allowed food and water ad libitum. Experimental protocols were approved by the Research Practice Committee at the Hong Kong University of Science & Technology, Hong Kong. Animals were randomly divided into groups, with 5 animals in each. In the treatment groups, rats were intragastrically administered with Sch B (dissolved/suspended in olive oil) at a daily dose of 10 mg/kg for 15 days. The daily dose is approximated to 1.14 mg/kg for humans after adjusting the inter-species difference in drug distribution in the body. Untreated control animals received olive oil only. Twenty-four hours after the last dosing, animals were sacrificed by decapitation and the whole brain, heart ventricular, liver and skeletal muscle (hind limb) tissues were excised and subjected to biochemical analysis. […]
Tissue homogenates were prepared as described above. […] An aliquot (1.6 ml) of mitochondrial sample (0.5 mg protein/ml) was prepared by mixing mitochondrial fraction with incubation buffer (125 mM sucrose, 65 mM KCl, 10 mM Hepes, pH 7.2, 5 mM succinate (freshly prepared) and 5 μM rotenone (freshly prepared). Aliquots (200 μl) of mitochondrial sample were mixed with 10 μl of cyclosporin A (5 μM in 0.5% ethanol final concentration) or incubation buffer. The mixtures were incubated at 30° C. for 5 min. An aliquot (10 μl) of calcium chloride solution (1 μM final concentration) was then added, and the mixtures were incubated at 30° C. for 5 min. Aliquots (180 μl) of the mixtures were added into 96-well micro-titer plate, and the initial absorbance of the mixtures at 520 nm was monitored for 5 min at 30° C. The swelling reaction was then started by adding 20 μl of K3PO4 (0.5 mM, pH 7.2), and the absorbance at 520 nm of the reaction mixtures was read every 2 min for 30 min at 30° C., using Victor V^2 Multi-Label Counter. […]

[2] = tested on: mitochondria of brain, heart, liver and skeletal muscle; assay: Mitochondrial ATP generation capacity in various tissues of young female rats; conditions: 15 days; for ATP generation: (−) Sch B, α-LA, α-Toc at daily 10, 5 and 70 mg/kg respectively
[3] = tested on: mitochondria of brain, heart, liver and skeletal muscle; assay: Mitochondrial reactive oxidant species (ROS) generation in tissues of young adult and middle-aged rats
Method: as §1, with “analysis. To investigate the effect of (−) Sch B on myocardial ischemia-reperfusion […] injury, rats were intragastrically administered with (−) Sch B at a daily dose of 10 mg/kg for 35 days. Untreated control animals received olive oil only.” for “analysis.”
Mitochondrial pellets were prepared from tissue homogenates by centrifugation at 800×g at 4° C. for 30 min, with purity being determined by measuring the relative specific activities of succinate dehydrogenase and lactate dehydrogenase (LDH) in the supernatant and mitochondrial pellet. […] The protein concentration of mitochondrial fractions was determined using a Bio-Rad protein assay kit.
An aliquot (50 μl) of mitochondrial fraction (50 μg protein/ml) and 60 μl of DCFDA solution (17.5 μM in incubation buffer) were added into wells of a black micro-titer plate. […] Fluorescence intensity (excitation: 485 nm and emission: 535 nm) of the reaction mixture was monitored every 5 min for 60 min. The mitochondrial ROS generation was reflected by the fluorescence intensity of the sample after subtracting the value of a blank sample containing incubation buffer, substrate solution and DCFDA. […]

COc1cc2c(c(OC)c1OC)-c1c(cc3c(c1OC)OCO3)CC(C)C(C)C2 (single isomer, unassigned; (-)) [(−) Sch B, (−) Schisandrin B]
extent of inhibition of sensitivity to Ca2+-induced MPT ([1]; middle-aged rats, all tissues except liver, range among tissues): 15-29%
sensitivity to Ca2+-induced MPT in liver ([1]; middle-aged rats, liver): did not show detectable change
decrease of sensitivity to Ca2+-induced MPT ([1]; young adult rat tissues, 10 mg/kg/day x 15, range among tissues): 15-48%
ATP generation ([2]; BRAIN): 143 ± 2 percent control
ATP generation ([2]; HEART): 131 ± 4 percent control
ATP generation ([2]; LIVER): 134 ± 5 percent control
change in ATP generation in skeletal muscle tissue ([2]; SKELETAL MUSCLE, 10 mg/kg daily): No detectable change
ATP generation ([2]; SKELETAL MUSCLE): 105 ± 41 percent control
decrease of mitochondrial ROS generation ([3]; middle-aged rats, 10 mg/kg/day x 15, range among tissues): 11-23%
difference in liver mitochondrial ROS generation between control and treated ([3]; middle-aged rats, liver): not statistically significant
suppression of mitochondrial ROS generation ([3]; young adult rats, 10 mg/kg/day x 15, range among all tissues): 16-38%
